Experiments:
[1] = target: T1, ΔF508-CFTR (Homo sapiens, UniProt P13569, DEL508-508); test: hBE Equivalent Current (Ieq) Assay; assay type: cell-based; conditions: compound at 10 uM and VX-809 at 1 uM; ΔF508 homozygous hBE, 24 hours; AUC of equivalent chloride current
T1 construct: primary lung epithelial cells (hBEs) homozygous for the Cystic Fibrosis-causing ΔF508 mutation; endogenous in cells; host or cells: primary human bronchial epithelial cells (hBE), ΔF508/ΔF508, differentiated at air-liquid interface
Procedure: Primary lung epithelial cells homozygous for the Cystic Fibrosis-causing ΔF508 mutation were differentiated for a minimum of 4 weeks in an air-liquid interface on Costar 24 well HTS filter plates prior to the equivalent current (Ieq) measurements. Cells were apically mucus-washed for 30 minutes 24 h prior to treatment with compounds. The basolateral media was removed and replaced with media containing the compound of interest diluted to its final concentration from DMSO stocks. Treated cells were incubated at 37° C. and 5% CO2 for 24 hours. At the end of the treatment period, the media was changed to the Ieq experimental solution for 30 minutes before the experiment and plates are maintained in a CO2-free incubator during this period. The plates containing the cells were then placed in pre-warmed heating blocks at 36° C.±0.5 for 15 minutes before measurements are taken. The transepithelial voltage (VT) and conductance (GT) were measured using a custom 24 channel current clamp (TECC-24) with 24 well electrode manifold. The Ieq assay measurements were made following additions with standardized time periods: • 1. The baseline VT and GT values were measured for approximately 20 minutes. • 2. Benzamil was added to block ENaC for 15 minutes. • 3. Forskolin plus VX-770 (ivacaftor) were added to maximally activate ΔF508-CFTR for 27 minutes. • 4. Bumetanide was added to inhibit the NaK2C1 cotransporter and shut-off secretion of chloride.
The activity data captured was the area under the curve (AUC) for the traces of the equivalent chloride current. The AUC was collected from the time of the forskolin/VX-770 addition until the inhibition by bumetanide addition. Correction in response to compound treatment was scored as the increase in the AUC for compound-treated samples over that of vehicle-treated samples.
(§1) (** indicates activity ≥200% of VX-809 (1 uM) with compound at 10 uM and VX-809 at 1 uM; * indicates activity 100-200% of VX-809 (1 uM) with compound at 10 uM and VX-809 at 1 uM. ^## indicates activity ≥200% of VX-809 (3 uM) with compound at 10 uM and VX-809 at 3 uM; ^# indicates activity 100-200% of VX-809 (3 uM) with compound at 10 uM and VX-809 at 3 uM.

[2] = system: CFTR, G551D/F508del HBEs; test: Ussing measurements, class III mutation hBEs (G551D/F508del); assay type: cell-based, human; conditions: VX-661 3 uM, Ivacaftor 1 uM, Compound A 10 uM, 24 hours
Procedure: (§2) As discussed above, Ussing measurements was used to measure CFTR activity. In this method, primary lung epithelial cells (hBEs) with a Cystic Fibrosis-causing class III mutation were differentiated for a minimum of 4 weeks in an air-liquid interface on SnapWell™ filter plates prior to the Ussing measurements. Cells were apically mucus-washed for 30 minutes prior to treatment with compounds. The basolateral media was removed and replaced with media containing the compound of interest diluted to its final concentration from DMSO stocks. Treated cells were incubated at 37° C. and 5% CO2 for 24 hours. At the end of the treatment period, the cells on filters were transferred to the Ussing chamber and equilibrated for 30 minutes. The short-circuit current was measured in voltage clamp-mode (Vhold=0 mV), and the entire assay was conducted at a temperature of 36° C.-36.5° C. Once the voltages stabilized, the chambers were clamped, and data was recorded by pulse readings every 5 seconds. Following baseline current stabilization, the following additions were applied and the changes in current and resistance of the cells was monitored: • 1. Benzamil to the apical chamber to inhibit ENaC sodium channel. • 2. Forskolin to both chambers to activate ΔF508-CFTR by phosphorylation. • 3. Genistein or VX-770 (ivacaftor) to the apical chamber to potentiate ΔF508-CFTR channel opening. • 4. CFTRinh-172 to the apical chamber to inhibit ΔF508-CFTR Cl— conductance.
(§3) The forskolin-sensitive current and inhibitable current (that potentiated current that is blocked by CFTRinh-172) were measured as the specific activity of the ΔF508-CFTR channel, and increase in response to compound in this activity over that observed in vehicle-treated samples were identified as the correction of ΔF508-CFTR function imparted by the compound tested.
(§4) The results are shown below in Tables 5 and 6. VX-661 is 3 uM, Ivacaftor is 1 uM and Compound A is 10 uM.

[3] = target: T1, ΔF508-CFTR; test: Ussing measurements, hBEs homozygous for ΔF508; assay type: cell-based; conditions: compound at 10 uM and VX-809 at 3 uM; ΔF508 homozygous hBE, 24 hours; CFTRinh-172 inhibitable current
Procedure: As discussed above, Ussing measurements can be used to measure CFTR activity. In this example, primary lung epithelial cells (hBEs) homozygous for the Cystic Fibrosis-causing ΔF508 mutation were differentiated for a minimum of 4 weeks in an air-liquid interface on SnapWell filter plates prior to the Ussing measurements. Cells were apically mucus-washed for 30 minutes prior to treatment with compounds. The basolateral media was removed and replaced with media containing the compound of interest diluted to its final concentration from DMSO stocks. Treated cells were incubated at 37° C. and 5% CO2 for 24 hours. At the end of the treatment period, the cells on filters were transferred to the Ussing chamber and equilibrated for 30 minutes. The short-circuit current was measured in voltage clamp-mode (Vhold=0 mV), and the entire assay was conducted at a temperature of 36° C.-36.5° C. Once the voltages stabilized, the chambers were clamped, and data was recorded by pulse readings every 5 seconds. Following baseline current stabilization, the following additions were applied and the changes in current and resistance of the cells was monitored: • 1. Benzamil to the apical chamber to inhibit ENaC sodium channel. • 2. Forskolin to both chambers to activate ΔF508-CFTR by phosphorylation. • 3. Genistein or VX-770 (ivacaftor) to both chambers to potentiate ΔF508-CFTR channel opening. • 4. CFTRinh-172 to the apical chamber to inhibit ΔF508-CFTR Cl— conductance.
The inhibitable current (that current that is blocked by CFTRinh-172) is measured as the specific activity of the ΔF508-CFTR channel, and increases in response to compound in this activity over that observed in vehicle-treated samples are identified as the correction of ΔF508-CFTR function imparted by the compound tested.
as §1

[4] = system: CFTR, S549N/F508del HBEs; test: Ussing measurements, class III mutation hBEs (S549N/F508del); assay type: cell-based, human; conditions: Ivacaftor 1 uM, Compound A 10 uM, 24 hours
Procedure: as §2, §3, §4

T1 sequence (P13569 with tags, fused parts or gaps DEL508-508): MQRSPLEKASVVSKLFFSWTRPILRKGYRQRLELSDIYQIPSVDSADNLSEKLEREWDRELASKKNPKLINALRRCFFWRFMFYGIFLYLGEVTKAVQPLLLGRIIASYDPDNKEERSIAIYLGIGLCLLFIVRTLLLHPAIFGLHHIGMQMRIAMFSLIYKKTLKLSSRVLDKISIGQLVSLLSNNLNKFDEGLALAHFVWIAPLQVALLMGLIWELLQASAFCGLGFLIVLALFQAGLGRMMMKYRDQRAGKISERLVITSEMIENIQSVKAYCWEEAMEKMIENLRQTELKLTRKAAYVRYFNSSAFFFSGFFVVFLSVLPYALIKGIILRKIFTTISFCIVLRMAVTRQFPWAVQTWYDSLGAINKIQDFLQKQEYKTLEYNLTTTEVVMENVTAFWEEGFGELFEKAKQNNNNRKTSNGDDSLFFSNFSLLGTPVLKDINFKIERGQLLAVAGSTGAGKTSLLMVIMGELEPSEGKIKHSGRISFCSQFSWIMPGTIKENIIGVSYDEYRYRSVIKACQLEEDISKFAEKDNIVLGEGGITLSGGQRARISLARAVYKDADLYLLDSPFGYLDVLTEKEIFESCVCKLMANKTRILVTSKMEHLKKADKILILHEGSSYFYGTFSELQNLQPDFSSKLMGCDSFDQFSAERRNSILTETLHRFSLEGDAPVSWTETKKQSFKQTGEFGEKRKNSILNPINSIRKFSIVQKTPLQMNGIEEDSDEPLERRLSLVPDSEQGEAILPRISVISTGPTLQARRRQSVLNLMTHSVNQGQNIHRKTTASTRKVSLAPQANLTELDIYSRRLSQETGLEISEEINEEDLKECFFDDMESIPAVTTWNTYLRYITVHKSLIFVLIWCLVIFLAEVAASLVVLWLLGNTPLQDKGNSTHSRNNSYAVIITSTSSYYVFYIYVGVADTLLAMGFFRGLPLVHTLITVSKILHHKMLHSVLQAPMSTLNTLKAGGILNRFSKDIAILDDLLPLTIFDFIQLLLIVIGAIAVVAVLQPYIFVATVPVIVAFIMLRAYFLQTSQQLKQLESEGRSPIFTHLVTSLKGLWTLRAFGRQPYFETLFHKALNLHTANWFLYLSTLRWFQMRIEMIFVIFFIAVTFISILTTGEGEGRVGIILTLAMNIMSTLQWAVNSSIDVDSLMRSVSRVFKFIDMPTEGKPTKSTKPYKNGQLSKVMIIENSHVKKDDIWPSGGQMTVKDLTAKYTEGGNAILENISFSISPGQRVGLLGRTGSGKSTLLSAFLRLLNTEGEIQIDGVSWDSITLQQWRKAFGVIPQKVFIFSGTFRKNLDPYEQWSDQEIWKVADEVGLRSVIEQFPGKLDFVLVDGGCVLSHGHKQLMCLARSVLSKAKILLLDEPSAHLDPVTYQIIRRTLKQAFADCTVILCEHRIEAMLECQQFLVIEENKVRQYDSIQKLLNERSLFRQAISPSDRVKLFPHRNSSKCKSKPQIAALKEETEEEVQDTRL

Row | SMILES | Ieq (% VX-809) [1] | Ussing (% VX-809) [3] | also measured
1 | O=C(NC[C@H]1C[C@@H](c2nnc(CO)s2)C1)c1cc(-c2ccccc2)on1 | ** (** indicates activity ≥200% of VX-809 (1 uM) with compound at 10 uM and VX-809 at 1 uM) | – | –
2 | CC(C)(CO)c1cc2cc(NC(=O)C3(c4ccc5c(c4)OC(F)(F)O5)CC3)c(F)cc2n1C[C@@H](O)CO [VX-661, 1-(2,2-difluoro-1,3-benzodioxol-5-yl)-N-[1-[(2R)-2,3-dihydroxypropyl]-6-fluoro-2-(2-hydroxy-1,1-dimethylethyl)-1H-indol-5-yl]-cyclopropanecarboxamide] | – | – | Activity in G551D/F508del HBEs [2]: 3.8 uAMP/cm^2
3 | C[C@@H](O)c1nnc(C2CC(NC(=O)c3cc(-c4ccccc4)on3)C2)o1 (some centres unmarked) | – | ## (^## indicates activity ≥200% of VX-809 (3 uM) with compound at 10 uM and VX-809 at 3 uM) | –
4 | O=C(N[C@H]1C[C@@H](Cc2nnc(CO)s2)C1)c1cc(-c2ccccc2)on1 | ** (** indicates activity ≥200% of VX-809 (1 uM) with compound at 10 uM and VX-809 at 1 uM) | ## (^## indicates activity ≥200% of VX-809 (3 uM) with compound at 10 uM and VX-809 at 3 uM) | –
5 | Cc1ccc(NC(=O)C2(c3ccc4c(c3)OC(F)(F)O4)CC2)nc1-c1cccc(C(=O)O)c1 [VX-809, 3-(6-(1-(2,2-difluorobenzo[d][1,3]dioxol-5-yl)cyclopropanecarboxamido)-3-methylpyridin-2-yl)benzoic acid] | – | – | Activity in S549N/F508del HBEs [4]: 6.4 uAMP/cm^2
6 | O=C(N[C@H]1C[C@@H](n2nncc2CO)C1)c1cc(-c2ccccc2)on1 | ** (** indicates activity ≥200% of VX-809 (1 uM) with compound at 10 uM and VX-809 at 1 uM) | ## (^## indicates activity ≥200% of VX-809 (3 uM) with compound at 10 uM and VX-809 at 3 uM) | –
7 | O=C(NC1CC(c2nnc(CO)o2)C1)c1cc(-c2ccccc2)on1 (centres unmarked) | – | ## (^## indicates activity ≥200% of VX-809 (3 uM) with compound at 10 uM and VX-809 at 3 uM) | –
8 | C[C@@H](O)c1cnnn1[C@H]1C[C@@H](NC(=O)c2cc(-c3ccccc3)on2)C1 | ** (** indicates activity ≥200% of VX-809 (1 uM) with compound at 10 uM and VX-809 at 1 uM) | – | –
9 | O=C(N[C@H]1C[C@H](n2cc(CO)nn2)C1)c1cc(-c2ccccc2)on1 | * (* indicates activity 100-200% of VX-809 (1 uM) with compound at 10 uM and VX-809 at 1 uM) | ## (^## indicates activity ≥200% of VX-809 (3 uM) with compound at 10 uM and VX-809 at 3 uM) | –
10 | O=C(N[C@H]1C[C@H](Cc2nnc(CO)s2)C1)c1cc(-c2ccccc2)on1 | ** (** indicates activity ≥200% of VX-809 (1 uM) with compound at 10 uM and VX-809 at 1 uM) | – | –
11 | O=C(N[C@H]1C[C@H](n2nncc2CO)C1)c1cc(-c2ccccc2)on1 | * (* indicates activity 100-200% of VX-809 (1 uM) with compound at 10 uM and VX-809 at 1 uM) | ## (^## indicates activity ≥200% of VX-809 (3 uM) with compound at 10 uM and VX-809 at 3 uM) | –
12 | C[C@@H](O)c1cn([C@H]2C[C@@H](NC(=O)c3cc(-c4ccccc4)on3)C2)nn1 | ** (** indicates activity ≥200% of VX-809 (1 uM) with compound at 10 uM and VX-809 at 1 uM) | – | –
13 | O=C(N[C@H]1C[C@@H](n2ccc(CO)n2)C1)c1cc(-c2ccccc2)on1 | ** (** indicates activity ≥200% of VX-809 (1 uM) with compound at 10 uM and VX-809 at 1 uM) | – | –
14 | O=C(N[C@H]1C[C@@H](n2cc(CO)cn2)C1)c1cc(-c2ccccc2)on1 | * (* indicates activity 100-200% of VX-809 (1 uM) with compound at 10 uM and VX-809 at 1 uM) | – | –
15 | O=C(NC[C@H]1C[C@H](c2nnc(CO)s2)C1)c1cc(-c2ccccc2)on1 | ** (** indicates activity ≥200% of VX-809 (1 uM) with compound at 10 uM and VX-809 at 1 uM) | – | –
16 | O=C(N[C@H]1C[C@@H](n2cc(CO)nn2)C1)c1cc(-c2ccccc2)on1 | ** (** indicates activity ≥200% of VX-809 (1 uM) with compound at 10 uM and VX-809 at 1 uM) | ## (^## indicates activity ≥200% of VX-809 (3 uM) with compound at 10 uM and VX-809 at 3 uM) | –
17 | O=C(N[C@H]1C[C@@H](c2nnc(CO)s2)C1)c1cc(-c2ccccc2)on1 | ** (** indicates activity ≥200% of VX-809 (1 uM) with compound at 10 uM and VX-809 at 1 uM) | – | –
18 | C[C@H](O)c1cn([C@H]2C[C@@H](NC(=O)c3cc(-c4ccccc4)on3)C2)nn1 | ** (** indicates activity ≥200% of VX-809 (1 uM) with compound at 10 uM and VX-809 at 1 uM) | – | –
19 | C[C@H](O)c1cnnn1[C@H]1C[C@@H](NC(=O)c2cc(-c3ccccc3)on2)C1 | ** (** indicates activity ≥200% of VX-809 (1 uM) with compound at 10 uM and VX-809 at 1 uM) | ## (^## indicates activity ≥200% of VX-809 (3 uM) with compound at 10 uM and VX-809 at 3 uM) | –
20 | C[C@H](O)c1nnc(C2CC(NC(=O)c3cc(-c4ccccc4)on3)C2)o1 (some centres unmarked) | – | ## (^## indicates activity ≥200% of VX-809 (3 uM) with compound at 10 uM and VX-809 at 3 uM) | –

— patent publication US20180147187A1, “COMPOUNDS, COMPOSITIONS, AND METHODS FOR INCREASING CFTR ACTIVITY” (Proteostasis Therapeutics, Inc., priority 2006, published 2018)
